Values quoted from earlier work in patent US20240358791A1, “PEPTIDES AND METHODS OF TREATING DYSTROPHY-RELATED DISORDERS USING THE SAME” (Prince Biotech, LLC, priority 2017, published 2024).

Conditions: IV infusion with radiation; xerostomia treatment (Kouvaria et al 2007)

## NCCCNCCSP(=O)(O)O [Amifostine]
  side effects: serious side effects including fatal skin reaction
